Results from patent publication US20040072744A1, “Synthetic peptide as treatment for down's syndrome and schizophrenia” (priority 2002, published 2004).
Entries after “also recorded” stand apart in the source; their conditions may differ.

Key:
Alzheimer's patients = conditions: oral administration, human clinical trials; cited from earlier work
[1] = tested on: influenza virus A/TAI strain; test: Kinetics of replication of influenza A/TAI virus in MDCK cells in serum free medium with supplement; assay type: cell-based; conditions: 1 μg/ml trypsin; for A/TA1 virus titer Day 2: 1 μg/ml NGF or 5 μg/ml Adesh-10, day 2; for A/TA1 virus titer Day 4: 1 μg/ml NGF or 5 μg/ml Adesh-10, day 4; for A/TA1 virus titer Day 6: 1 μg/ml NGF or 5 μg/ml Adesh-10, day 6
NGF = NGF content in organ homogenates of orally treated mice by ELISA using anti-NGF; assay type: in vivo, Balb/c male mice; conditions: oral 100 μg/mouse for 7 days
Protocol: One year old Balb/c male mice (considered to be retired and non-productive) were given Adesh-10 orally for seven consecutive days, and the control set of mice received PBS. Two days after the completion of the treatment, the mice were sacrificed for organs. Organ homogenates were assayed for NGF content by simple enzyme-linked immunosorbent assay (ELISA), using anti-NGF.
Preparation of organ homogenates: Mice were used in compliance with U.S. Public Health Service policy on humane care and use of animals. One-year-old Balb/c male mice were divided into two groups each consisting of five. Mice in group I were given orally 100 μg/mouse in 50 μl volume of Adesh-10, the synthetic analog of NGF for seven consecutive days. The group II mice were given similar volume of PBS. Two days after the completion of the treatment with Adesh-10 or PBS the mice were sacrificed for organs. Organs from five of each group of mice were collected and one type of organ from five were pooled. The pool of the organs was homogenized in PBS by manual homogenizer. The homogenates were centrifuged and the supernatants for each pool organ were separated. Protein concentration for each supernatant was measured on spectrophotometer using a protein kit from Bio-Rad (USA catalogue 500-0006). The protein concentrations of the supernatants were adjusted to 100 μg/ml with PBS, as stocks for further testing.
Enzyme-linked immunosorbent assay (ELISA): ELISA tests were carried out in 96 well microtiter plates. The reagents for ELISA were purchased from Sigma-Aldrich Co. The stocks from mouse organs were diluted with carbonate-bicarbonate buffer of pH 9.4 to 10 μg/ml as coating antigen for ELISA. The wells of the plate were coated with antigen, 100 μl/well. The plate was left at room temperature (RT) overnight, after which it was emptied and washed three times (3×) with PBS. The wells were blocked with 250 μl/well of 3% fish skin gelatin. After 30 min. the plate was emptied and washed 3× with PBS. Anti-NGF made in rabbit was diluted from 1:300 in gelatin. Three wells received 100 μl of each dilution of anti-serum. Two-fold diluted anti-sera were used from 1:300 in triplicate. The antigen controls without antibody were incorporated. The plate was incubated at 37° C. in a humid incubator for 1 hr after which the plate was washed 3× with PBS. The horseradish peroxidase conjugated with rabbit IgG 100 μl/well were reacted, for 30 min. Finally, after washing, the wells of the plate were reacted with O-phenylenediamine-HCl (OPD) for color development. The plate was read after 30 min. and the OD was recorded at […]. The average of triplicate readings was expressed as ELISA titer/100 μl.
One year old Balb/c male mice were used for this research. Ten mice were used consisting of two groups five of each. Mice in group I were given orally 100 μg/mouse in 50 μl volume of Adesh-10, synthetic analog of NGF for seven consecutive days. The group II mice were given similar volume of PBS. Two days after the completion of the treatment the mice were sacrificed for organs. Organ homogenates were assayed for NGF by ELISA.

PC 12 cells = test: Toxicity to PC12 cells; assay type: cell-based, rat
Protocol: (§1) Adesh-10 (SEQ. ID. NO.: 2) is considered exemplary of the Adesh family of peptides and has been studied and tested to illustrate the invention. Venom derived NGF produced neurites on PC12 cells at 5 ng/ml while the concentration of Adesh-10 required was 1 μg/ml. NGF is toxic to PC 12 cells at the concentration of 5 μg/ml, while Adesh-10 is not toxic up to 100 μg/ml.

Down syndrome children = test: Treatment of Down syndrome children; assay type: in vivo, human; conditions: 100 μg/day, orally under the tongue or sub cutaneous injection
Protocol: In Humans: Several Down syndrome children were treated with Adesh-10. Adesh-10 was administered in the amount of 100 μg/day, either orally under the tongue, or by sub cutaneous injection.

PC12 cells = test: Neurite production on PC12 cells; assay type: cell-based, rat
Protocol: as §1

simian rotavirus (SA11) = test: Kinetics of replication of SA11 virus in MA104 cells in serum free medium with supplement; assay type: cell-based; conditions: 1 μg/ml trypsin; for SA11 virus titer Day 2: 1 μg/ml NGF or 5 μg/ml Adesh-10, day 2; for SA11 virus titer Day 4: 1 μg/ml NGF or 5 μg/ml Adesh-10, day 4; for SA11 virus titer Day 6: 1 μg/ml NGF or 5 μg/ml Adesh-10, day 6; for SA11 virus titer Day 8: 1 μg/ml NGF or 5 μg/ml Adesh-10, day 8

O=C(CCn1cnc2c(=O)[nH]cnc21)Nc1ccc(C(=O)[O-])cc1.[K+] [AIT-082]
efficacy in Alzheimer's patients versus placebo (Alzheimer's patients): no difference between Alzheimer's patients treated with AIT-082 and placebo

N L G E H P V C D S (NLGEHPVCDS; CORRESPONDS TO POSITIONS 1-10 OF SEQ. ID. NO. 1) [Adesh-10]
A/TA1 virus titer Day 2 [1]: 4 Log TCID5/ml | A/TA1 virus titer Day 4 [1]: 5.1 Log TCID5/ml | A/TA1 virus titer Day 6 [1]: 6.2 Log TCID5/ml | NGF concentration in organ, Treated: Bone (NGF; Bone, one year old male mice, organs 2 days after treatment): 900 ELISA titer/100 μl | NGF concentration in organ, Treated: Brain (NGF; Brain, one year old male mice, organs 2 days after treatment): 2400 ELISA titer/100 μl | NGF concentration in organ, Treated: Heart (NGF; Heart, one year old male mice, organs 2 days after treatment): 2400 ELISA titer/100 μl | NGF concentration in organ, Treated: Kidney (NGF; Kidney, one year old male mice, organs 2 days after treatment): 1800 ELISA titer/100 μl | NGF concentration in organ, Treated: Liver (NGF; Liver, one year old male mice, organs 2 days after treatment): 2400 ELISA titer/100 μl | NGF concentration in organ, Treated: Lung (NGF; Lung, one year old male mice, organs 2 days after treatment): 1800 ELISA titer/100 μl | NGF concentration in organ, Treated: Muscle (NGF; Muscle, one year old male mice, organs 2 days after treatment): 2400 ELISA titer/100 μl | NGF concentration in organ, Treated: Pancreas (NGF; Pancreas, one year old male mice, organs 2 days after treatment): 1200 ELISA titer/100 μl | NGF concentration in organ, Treated: Salivary (NGF; Salivary, one year old male mice, organs 2 days after treatment): 1200 ELISA titer/100 μl | NGF concentration in organ, Treated: Skin (NGF; Skin, one year old male mice, organs 2 days after treatment): 1200 ELISA titer/100 μl | NGF concentration in organ, Treated: Spleen (NGF; Spleen, one year old male mice, organs 2 days after treatment): 1200 ELISA titer/100 μl | NGF concentration in organ, Treated: Testis (NGF; Testis, one year old male mice, organs 2 days after treatment): 1800 ELISA titer/100 μl | increase in NGF level versus control (NGF; brain, muscle and testis): twofold increase | concentration toxic to PC 12 cells (PC 12 cells): > 100 µg/mL | clinical effect in Down's syndrome children (Down syndrome children): good results; also recorded: improved physical, vocal, learning and memory abilities | concentration required to produce neurites on PC12 cells (PC12 cells): 1 µg/mL | SA11 virus titer Day 2 (simian rotavirus (SA11)): 3 Log TCID50/ml | SA11 virus titer Day 4 (simian rotavirus (SA11)): 6 Log TCID50/ml | SA11 virus titer Day 6 (simian rotavirus (SA11)): 6.5 Log TCID50/ml | SA11 virus titer Day 8 (simian rotavirus (SA11)): 8 Log TCID50/ml

Trypsin [reference compound]
A/TA1 virus titer Day 2 [1]: 5.6 Log TCID5/ml | A/TA1 virus titer Day 4 [1]: 6 Log TCID5/ml | A/TA1 virus titer Day 6 [1]: 6.5 Log TCID5/ml | SA11 virus titer Day 2 (simian rotavirus (SA11)): 6.5 Log TCID50/ml | SA11 virus titer Day 4 (simian rotavirus (SA11)): 7.2 Log TCID50/ml | SA11 virus titer Day 6 (simian rotavirus (SA11)): 8 Log TCID50/ml | SA11 virus titer Day 8 (simian rotavirus (SA11)): 8.5 Log TCID50/ml

B1: NGF (protein)
chain: EDHPVHNLGEHSVCDSVSAWVTKTTATDIKGNTVTVMENVNLDNKVYKEYFFETKCKNPNPEPSGCRGIDSSHWNSYCTETDTFIKALTMEGNQASWRFIRIDTACVCVITKKTGN
A/TA1 virus titer Day 2 [1]: 5 Log TCID5/ml | A/TA1 virus titer Day 4 [1]: 5.5 Log TCID5/ml | A/TA1 virus titer Day 6 [1]: 6.1 Log TCID5/ml | concentration toxic to PC 12 cells (PC 12 cells): 5 µg/mL | concentration producing neurites on PC12 cells (PC12 cells): 5 ng/mL | SA11 virus titer Day 2 (simian rotavirus (SA11)): 4 Log TCID50/ml | SA11 virus titer Day 4 (simian rotavirus (SA11)): 7 Log TCID50/ml | SA11 virus titer Day 6 (simian rotavirus (SA11)): 7.5 Log TCID50/ml | SA11 virus titer Day 8 (simian rotavirus (SA11)): 8.2 Log TCID50/ml
